According to US6989390B2, “Amonafide salts” (priority 2002, dated 2006):

How the values were obtained:
[1] = Daily body weight and general health monitoring during the hollow fiber study; assay type: in vivo; conditions: mice, monitored daily for 6 days, i.p. dosing
Procedure: Individual mouse body weights were recorded daily and animals were monitored daily for general health for 6 days.

MCF-7 (Breast) = assay: Hollow Fiber in vivo anti-cancer assay; parameters: species or system mice
Procedure: (§1) The in vivo activity was tested using the Hollow Fiber methodology developed by the National Cancer Institute: Developmental Therapeutics Branch for use in their antineoplastic agent screening program. Specifically, the anti-cancer activity of amonafide L-malate was tested by the following protocol.
(§2) Polyvinylidene fluoride (PVDF) hollow fibers were used. The fibers were individually flushed and filled with 70% ethanol and incubated in 70% ethanol at room temperature for a minimum of 96 hour. Following three washes with deionized water, the fibers were filled with and placed into a pan of deionized water for sterilization by autoclaving. Then the fibers were stored in water at 4° C. until used.
(§3) Mice were grouped into 4 groups, two control groups with 6 mice per group and 2 experimental groups with 3 mice per group.
(§4) Anesthesia was induced in mice by ketamine/acepromazine/xylazine injected intraperitoneally (i.p.) For the intraperitoneal (i.p.) implants, a small incision was made through the skin and musculature of the dorsal abdominal wall, the fiber samples were inserted into the peritoneal cavity in a craniocaudal direction and the incision was closed with a skin staple. For subcutaneous (s.c.) implants, a small skin incision was made at the nape of the neck to allow insertion of an 11 gauge tumor implant trocar. The trocar, containing the hollow fiber samples, was inserted caudally through the subcutaneous tissues and the fibers were deposited during withdrawal of the trocar. The skin incision was closed with a skin staple. Each mouse was host of 6 samples, representing 3 tumor cells lines each of which was cultured in the 2 physiologic compartments (i.p. and s.c.).
(§5) On the day following the last drug injection, the animals were sacrificed and the hollow fibers extracted. The hollow fibers were then subjected to the stable endpoint MTT assay as described in Example 5. The optical density of each sample is determined spectrophotometrically at 540 nm and the mean of each treatment group is calculated. The percent net growth for each cell line in each treatment group is calculated as described in Example 5 and compared to the percent net growth in the vehicle treated controls (Group B) using the formula below to determine the percent growth inhibition:
(§6) % growth inhibition=(Net GrowthControl−Net GrowthTreated)/Net GrowthControl)*100

COLO205 (Colorectal) = assay: Hollow Fiber in vivo anti-cancer assay; parameters: species or system mice
Procedure: as §1, §2, §3, §4, §5, §6

MDA-231 (Breast) = assay: Hollow Fiber in vivo anti-cancer assay; parameters: species or system mice
Procedure: as §1, §2, §3, §4, §5, §6

PC3 (Prostate) = assay: Hollow Fiber in vivo anti-cancer assay; parameters: species or system mice; conditions: for % Growth Inhibition: 29.4 mg/kg i.p. once daily days 3-8
Procedure: as §1, §2, §3, §4, §5, §6

H23 (Lung) = assay: Hollow Fiber in vivo anti-cancer assay; parameters: species or system mice
Procedure: as §1, §2, §3, §4, §5, §6

## CN(C)CCN1C(=O)c2cccc3cc(N)cc(c23)C1=O.O=C(O)C[C@H](O)C(=O)O [Amonafide Malate]
[1]
  premature sacrifice for body weight loss of greater than 20% or other signs of toxicity: not necessary to sacrifice any animals
MCF-7 (Breast); MCF-7, I.P. fibers, 15 mg/kg i.p. twice-daily
  % Growth Inhibition: 97%
MCF-7 (Breast); MCF-7, I.P. fibers, 29 mg/kg i.p. twice-daily
  % Growth Inhibition: 124%
MCF-7 (Breast); MCF-7, IP, 29.4 mg/kg i.p. once daily days 3-8
  % Growth Inhibition: 150.2%
MCF-7 (Breast); MCF-7, S.C. fibers, 15 mg/kg i.p. twice-daily
  % Growth Inhibition: 83%
MCF-7 (Breast); MCF-7, S.C. fibers, 29 mg/kg i.p. twice-daily
  % Growth Inhibition: 107%
MCF-7 (Breast); MCF-7, SC, 29.4 mg/kg i.p. once daily days 3-8
  % Growth Inhibition: 116.1%
MCF-7 (Breast); MCF-7, above 100% indicates lethality for cancerous cells
  percent growth inhibition (text summary of Tables 6-8): above 100%
COLO205 (Colorectal); COLO205 (colorectal cancer)
  percent growth inhibition (text summary of Tables 6-8): Significant percent growth inhibition
COLO205 (Colorectal); COLO205, I.P. fibers, 15 mg/kg i.p. twice-daily
  % Growth Inhibition: 82%
COLO205 (Colorectal); COLO205, I.P. fibers, 29 mg/kg i.p. twice-daily
  % Growth Inhibition: 98%
COLO205 (Colorectal); COLO205, IP, 29.4 mg/kg i.p. once daily days 3-8
  % Growth Inhibition: 84.6%
COLO205 (Colorectal); COLO205, S.C. fibers, 15 mg/kg i.p. twice-daily
  % Growth Inhibition: 50%
COLO205 (Colorectal); COLO205, S.C. fibers, 29 mg/kg i.p. twice-daily
  % Growth Inhibition: 76%
COLO205 (Colorectal); COLO205, SC, 29.4 mg/kg i.p. once daily days 3-8
  % Growth Inhibition: 80.4%
MDA-231 (Breast); MDA-231, I.P. fibers, 15 mg/kg i.p. twice-daily
  % Growth Inhibition: 93%
MDA-231 (Breast); MDA-231, I.P. fibers, 29 mg/kg i.p. twice-daily
  % Growth Inhibition: 108%
MDA-231 (Breast); MDA-231, S.C. fibers, 15 mg/kg i.p. twice-daily
  % Growth Inhibition: 79%
MDA-231 (Breast); MDA-231, S.C. fibers, 29 mg/kg i.p. twice-daily
  % Growth Inhibition: 113%
MDA-231 (Breast); MDA-231, above 100% indicates lethality for cancerous cells
  percent growth inhibition (text summary of Tables 6-8): above 100%
PC3 (Prostate); PC3, IP
  % Growth Inhibition: 71.6%
PC3 (Prostate); PC3, SC
  % Growth Inhibition: 52.9%
PC3 (Prostate); PC-3 (prostate)
  percent growth inhibition (text summary of Tables 6-8): Significant percent growth inhibition
H23 (Lung); H23, I.P. fibers, 15 mg/kg i.p. twice-daily
  % Growth Inhibition: 36%
H23 (Lung); H23, I.P. fibers, 29 mg/kg i.p. twice-daily
  % Growth Inhibition: 47%
H23 (Lung); H23, S.C. fibers, 15 mg/kg i.p. twice-daily
  % Growth Inhibition: 13%
H23 (Lung); H23, S.C. fibers, 29 mg/kg i.p. twice-daily
  % Growth Inhibition: 27%
